In patent US4312867A, “Antibacterial compounds, processes for their preparation and compositions containing them” (Beecham Group Limited, priority 1979, dated 1982):
Values after ≈ are worked out from the molar mass of the structure shown.

Key:
Assay type in all cases: cell-based
[1] = system: Bord bronchiseptica B08; experiment: MIC veterinary bacteria (Table 2), serial dilution in agar; conditions: diagnostic sensitivity test agar
[2] = system: E. coli E1; experiment: as above; conditions: Escherichia coli, diagnostic sensitivity test agar
[3] = system: Corynebacterium pyogenes CY1; experiment: as above; conditions: Trueperella pyogenes, diagnostic sensitivity test agar
[4] = system: Erysipelothrix rhusiopathiae NCTC 8163; experiment: as above; conditions: NCTC8163; Erysipelothrix rhusiopathiae NCTC 8163; diagnostic sensitivity test agar; read-out: MIC
[5] = system: Bacillus subtilis 6633; experiment: MIC human bacteria (Table 1), serial dilution in nutrient agar; conditions: nutrient agar with 5% chocolated horse blood
[6] = system: Staph aureus Russell; experiment: as above; conditions: Staphylococcus aureus, nutrient agar with 5% chocolated horse blood
[7] = system: Staph aureus Oxford; experiment: MIC veterinary bacteria (Table 2), serial dilution in agar; conditions: Staphylococcus aureus
[8] = system: E. coli NCTC 10418; experiment: MIC human bacteria (Table 1), serial dilution in nutrient agar; conditions: Escherichia coli, NCTC10418
[9] = system: Strep agalactiae SPA1; experiment: MIC veterinary bacteria (Table 2), serial dilution in agar; conditions: diagnostic sensitivity test agar
[10] = system: Strep dysgalaciae SPD1; experiment: as above; conditions: diagnostic sensitivity test agar
[11] = system: E. coli ESS; experiment: MIC human bacteria (Table 1), serial dilution in nutrient agar; conditions: Escherichia coli; E. coli ESS; nutrient agar with 5% chocolated horse blood; read-out: MIC
[12] = system: Staph aureus Oxford; experiment: as above; conditions: Staphylococcus aureus, nutrient agar with 5% chocolated horse blood
[13] = system: M dispar H225; experiment: in vitro anti-mycoplasmal MIC, Friis' broth (Table 3)
Experimental: (§1) The minimum inhibitory concentrations (MIC) of the examples were determined by either:
(§2) (i) in Friis' broth using microtitre plates, by modification of the metabolic-inhibition test (Taylor-Robinson, Post Frad, Med. J., 1967, 43, 100).

[14] = system: M pneumoniae ATCC 15492; experiment: as above
Experimental: as §1, §2

[15] = system: M fermentans MWKL4; experiment: as above
Experimental: as §1, §2

[16] = system: M suipneumoniae J2206/183b; experiment: as above
Experimental: as §1, §2

[17] = system: M pneumoniae 427a; experiment: as above
Experimental: as §1, §2

[18] = system: M pulmonis JB; experiment: as above
Experimental: as §1, §2

[19] = system: M dispar NCTC 10125; experiment: as above
Experimental: as §1, §2

[20] = system: M suipneumoniae Str 11; experiment: as above
Experimental: as §1, §2

[21] = system: Staph aureus W2827; experiment: MIC human bacteria (Table 1), serial dilution in nutrient agar; conditions: Staphylococcus aureus, nutrient agar with 5% chocolated horse blood
[22] = system: Haemophilus influenzae Q1; experiment: as above; conditions: Haemophilus influenzae, Q1
[23] = system: Past haemolytica PA5; experiment: MIC veterinary bacteria (Table 2), serial dilution in agar; conditions: diagnostic sensitivity test agar
[24] = system: Staph aureus 152 (pen. sens); experiment: as above; conditions: Staphylococcus aureus, diagnostic sensitivity test agar
[25] = system: Pasteurella multocida 1633; experiment: MIC human bacteria (Table 1), serial dilution in nutrient agar; conditions: Pasteurella multocida, 1633
[26] = system: S. typhimurium S18; experiment: MIC veterinary bacteria (Table 2), serial dilution in agar; conditions: Salmonella enterica, diagnostic sensitivity test agar
[27] = system: Bord bronchiseptica B09; experiment: as above; conditions: diagnostic sensitivity test agar
[28] = system: Corynebacterium xerosis 9755; experiment: MIC human bacteria (Table 1), serial dilution in nutrient agar; conditions: nutrient agar with 5% chocolated horse blood, read-out: MIC
[29] = system: P. mirabilis 889; experiment: as above; conditions: Proteus mirabilis, 889
[30] = system: K. aerogenes A; experiment: as above; conditions: Klebsiella aerogenes, nutrient agar with 5% chocolated horse blood
[31] = system: Ps. aeruginosa 10662; experiment: as above; conditions: Pseudomonas aeruginosa, nutrient agar with 5% chocolated horse blood
[32] = system: Strep suis (group D) SPS11; experiment: MIC veterinary bacteria (Table 2), serial dilution in agar; conditions: diagnostic sensitivity test agar
[33] = system: E. coli NCTC 10418; experiment: as above; conditions: Escherichia coli, NCTC10418
[34] = system: Past multocida PA1; experiment: as above; conditions: diagnostic sensitivity test agar
[35] = system: Strep pyogenes A 64/848; experiment: MIC human bacteria (Table 1), serial dilution in nutrient agar; conditions: nutrient agar with 5% chocolated horse blood
[36] = system: Sarcina lutea 8340; experiment: as above; conditions: Micrococcus luteus, nutrient agar with 5% chocolated horse blood, read-out: MIC
[37] = system: Strep faecalis I; experiment: as above; conditions: nutrient agar with 5% chocolated horse blood
[38] = system: Past multocida PA2; experiment: MIC veterinary bacteria (Table 2), serial dilution in agar; conditions: diagnostic sensitivity test agar
[39] = system: Haemophilus influenzae Wy21; experiment: MIC human bacteria (Table 1), serial dilution in nutrient agar; conditions: Haemophilus influenzae, WY21
[40] = system: Strep pyogenes C 2761; experiment: as above; conditions: nutrient agar with 5% chocolated horse blood
[41] = system: S. dublin S7; experiment: MIC veterinary bacteria (Table 2), serial dilution in agar; conditions: Salmonella enterica, diagnostic sensitivity test agar
[42] = system: Strep uberis SPU1; experiment: as above; conditions: diagnostic sensitivity test agar
[43] = system: Staph aureus B4 (pen. resis); experiment: as above; conditions: Staphylococcus aureus
[44] = system: Strep pyogenes B 2788; experiment: MIC human bacteria (Table 1), serial dilution in nutrient agar; conditions: nutrient agar with 5% chocolated horse blood
[45] = system: M pneumoniae ATCC 15492; experiment: in vitro anti-mycoplasmal MIC, Friis' agar (Table 3)
Experimental: as §1
(§3) or (ii) by serial dilution in Friis' agar medium.

[46] = system: M bovigenitalium ATCC 14173; experiment: as above
Experimental: as §1, §3

[47] = system: M fermentans MWKL4; experiment: as above
Experimental: as §1, §3

[48] = system: M gallisepticum S6; experiment: as above
Experimental: as §1, §3

[49] = system: M arthritidis ATCC 14124; experiment: as above
Experimental: as §1, §3

[50] = system: M hyorhinis ATCC 23234; experiment: as above
Experimental: as §1, §3

[51] = system: M pneumoniae 427a; experiment: as above
Experimental: as §1, §3

[52] = system: M pulmonis JB; experiment: as above
Experimental: as §1, §3

[53] = system: M alkalescens NCTC 10135; experiment: as above
Experimental: as §1, §3

[54] = system: M hyosynoviae ATCC 25591; experiment: as above
Experimental: as §1, §3

[55] = system: M synoviae ATCC 25204; experiment: as above
Experimental: as §1, §3

Question: Which results are given for `C/C(=C\C(=O)OCCCS(N)(=O)=O)CC1OCC(CC2OC2C(C)C(C)O)C(O)C1O` (stereo not shown) [Example 1, 3-Sulphamoylpropyl monate A]?
Answer: MIC [1]: 80 µg/mL (≈ 172 µM); MIC [2]: > 80 µg/mL; MIC [3]: > 80 µg/mL; MIC [4]: > 80 µg/mL; MIC [5]: 10 µg/mL (≈ 21.5 µM); MIC [6]: 50 µg/mL (≈ 107 µM); MIC [7]: 40 µg/mL (≈ 85.9 µM); MIC [8]: > 100 µg/mL; MIC [9]: 2.5 µg/mL (≈ 5.37 µM); MIC [10]: 2.5 µg/mL (≈ 5.37 µM); MIC [11]: 25 µg/mL (≈ 53.7 µM); MIC [12]: 50 µg/mL (≈ 107 µM); MIC [13]: 0.039 µg/mL (≈ 0.0838 µM); MIC [14]: 2.5 µg/mL (≈ 5.37 µM); MIC [15]: 0.039 µg/mL (≈ 0.0838 µM); MIC [16]: 0.312 µg/mL (≈ 0.67 µM); MIC [17]: 2.5 µg/mL (≈ 5.37 µM); MIC [18]: 0.02 µg/mL (≈ 0.043 µM); MIC [19]: 0.078 µg/mL (≈ 0.168 µM); MIC [20]: 0.078 µg/mL (≈ 0.168 µM); MIC [21]: 100 µg/mL (≈ 215 µM); MIC [22]: 0.05 µg/mL (≈ 0.107 µM); MIC [23]: 10 µg/mL (≈ 21.5 µM); MIC [24]: 20 µg/mL (≈ 43 µM); MIC [25]: 0.5 µg/mL (≈ 1.07 µM); MIC [26]: > 80 µg/mL; MIC [27]: 20 µg/mL (≈ 43 µM); MIC [28]: > 100 µg/mL; MIC [29]: 100 µg/mL (≈ 215 µM); MIC [30]: > 100 µg/mL; MIC [31]: > 100 µg/mL; MIC [32]: 80 µg/mL (≈ 172 µM); MIC [33]: > 80 µg/mL; MIC [34]: 0.625 µg/mL (≈ 1.34 µM); MIC [35]: 0.5 µg/mL (≈ 1.07 µM); MIC [36]: > 100 µg/mL; MIC [37]: > 100 µg/mL; MIC [38]: 0.156 µg/mL (≈ 0.335 µM); MIC [39]: 0.05 µg/mL (≈ 0.107 µM); MIC [40]: 2.5 µg/mL (≈ 5.37 µM); MIC [41]: > 80 µg/mL; MIC [42]: 1.25 µg/mL (≈ 2.68 µM); MIC [43]: 40 µg/mL (≈ 85.9 µM); MIC [44]: 2.5 µg/mL (≈ 5.37 µM); MIC [45]: 5 µg/mL (≈ 10.7 µM); MIC [46]: 0.039 µg/mL (≈ 0.0838 µM); MIC [47]: 0.078 µg/mL (≈ 0.168 µM); MIC [48]: > 10 µg/mL; MIC [49]: > 10 µg/mL; MIC [50]: 0.312 µg/mL (≈ 0.67 µM); MIC [51]: 2.5 µg/mL (≈ 5.37 µM); MIC [52]: 0.039 µg/mL (≈ 0.0838 µM); MIC [53]: 0.039 µg/mL (≈ 0.0838 µM); MIC [54]: 0.156 µg/mL (≈ 0.335 µM); MIC [55]: < 0.02 µg/mL
